Results as given in ChEMBL document CHEMBL1201862, “PubChem BioAssay data set” (2004).
The source made the active and inactive calls. No stated cut-off is given here; in the data, actives have a measured IC50 and inactives only a lower limit.

Target: Envelope glycoprotein gp160 (Human immunodeficiency virus 1, UniProt Q6QLK5)
Experiment: cell-free HIV fusion peptide-binding blockers – biochemical, uHTS, fluorescence dequenching, […] (AID 1986)

Envelope glycoprotein gp160, sequence (Q6QLK5 whole entry, the tested form may be a part): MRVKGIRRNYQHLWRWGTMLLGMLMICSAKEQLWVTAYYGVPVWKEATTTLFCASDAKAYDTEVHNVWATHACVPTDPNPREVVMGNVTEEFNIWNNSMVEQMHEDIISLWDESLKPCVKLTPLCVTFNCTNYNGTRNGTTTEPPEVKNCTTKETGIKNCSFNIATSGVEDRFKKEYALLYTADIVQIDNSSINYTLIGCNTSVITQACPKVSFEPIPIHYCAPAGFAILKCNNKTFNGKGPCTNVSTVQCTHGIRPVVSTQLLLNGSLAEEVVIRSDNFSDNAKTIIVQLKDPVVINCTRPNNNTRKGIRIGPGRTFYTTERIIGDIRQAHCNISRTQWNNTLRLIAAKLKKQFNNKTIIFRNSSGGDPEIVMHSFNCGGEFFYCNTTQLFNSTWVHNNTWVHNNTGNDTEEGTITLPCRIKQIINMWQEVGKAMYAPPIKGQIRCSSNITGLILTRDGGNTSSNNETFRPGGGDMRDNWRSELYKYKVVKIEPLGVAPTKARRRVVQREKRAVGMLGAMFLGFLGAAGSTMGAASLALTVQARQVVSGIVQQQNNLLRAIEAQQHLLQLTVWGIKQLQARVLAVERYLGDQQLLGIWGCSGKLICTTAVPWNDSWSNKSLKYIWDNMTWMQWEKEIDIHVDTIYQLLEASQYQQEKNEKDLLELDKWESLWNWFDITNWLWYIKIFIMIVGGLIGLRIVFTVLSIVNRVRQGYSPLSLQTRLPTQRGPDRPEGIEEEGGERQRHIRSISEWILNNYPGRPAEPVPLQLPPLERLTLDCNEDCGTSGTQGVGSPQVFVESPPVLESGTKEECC

In the case of `COc1ccc(C(=O)/C=C/c2ccc(-c3ccccc3)cc2)cc1CSCC(=O)O`, the IC50 is reported as 21.5 µM (active).
